In patent US20220106282A1, “TREATMENT FOR BREAST CANCER, INCLUDING TRIPLE-NEGATIVE BREAST CANCER” (priority 2018, published 2022):
Values joined by “and” are separate entries in the source; they are usually repeats but may differ in a detail not shown here. Equal values may be shown once. Marks after values point to notes of the source that are not given here.

Tested on: breast tumors in female FVB mice transgenic for HER-2/neu
Assay: Antitumor activity on model of multiple breast tumors in HER-2/neu transgenic mice
Method: Two adenocarcinoma subtypes can be differentiated, in particular ER+, PR−, and ER−, PR− [2].
The study was carried out in female FVB mice transgenic for HER-2/neu by conventional category; the strain was obtained from the mouse bank Charles River Laboratories (Italy). At the beginning of the study the animals were 21-41 weeks old having weight of 25 to 30 g.
The study medicament was administered i.g. using a metal atraumatic gavage (with the procedure corresponds to the oral route of administration in clinical settings). The medicament was administered in a single daily dose (20 mg/kg of body weight) and 5-fold daily dose of 100 mg/kg of body weight. Ex tempore solutions of the medicament for administration were prepared in olive oil (refined olive oil supplemented with unrefined extra virgin olive oil available under Global Village “Clasico” trademark, lot L:183351116, expiry date 26 Apr. 2020, BAIEO, Spain). The administered volume was 0.1 ml per 10 g of a mouse body weight (0.2 ml of a ready-to-use formulation for a mouse of 20 g). The medicament administration was started 24 hours after the randomization. The duration of the administration course was 27-28 days.
This dose corresponds to a human daily dose of 20 mg/kg.
The control groups were given the olive oil (placebo).
The evaluation criteria included the clinical observation data, animals body weights, time of death (if applicable), tumor growth over time, pathomorphological examination data (verification of a neoplasm during autopsy, assessment of toxic effects by macroscopic presentation of changes in the internal organs).
The animals body weights were recorded before the first administration of the medicaments and then twice per week using a verified high-speed electronic laboratory balance Ohaus Scout Pro (USA) with a maximum load of 2000 g and a measurement step of 0.1 g.
Macroscopically detectable tumor nodes were measured in animals once per week during weighing process. Two linear dimensions including the largest one and the largest rectangular to the former were recorded for each of the nodes. The largest dimension was taken as a length (a) and the second dimension as a width (b) of the tumor nodes. A tumor volume was calculated by the expression as follows: […]
The efficacy of the therapy was assessed by recording a change in the average tumor volume, tumor growth inhibition (TGI), and the average total tumor volumes and its change over time in each of the mice.
The percent of tumor growth inhibition was calculated by the expression as follows:
TGI=(Vctrl−Vexp)/Vctrl×100(%),
where Vctrl is an average tumor volume in a control group, and Vexp is an average tumor volume in an experimental group.
The primary data from individual forms were transferred to Microsoft Excel 2007 books. The group arithmetic average (M) and standard deviation (m) were calculated for all quantitative data. The statistical analysis was performed using the statistical software GraphPad Prism 6.0. The differences between the groups were assessed using ANOVA regression analysis and the Fisher's exact test.

[1] = 20 mg/kg i.g. daily, Day 27 vs Day −1

Q: `C[C@H]1Oc2cc(OS(N)(=O)=O)ccc2[C@H]2CC[C@]3(C)C(=O)CCC[C@H]3[C@H]21` [compound of formula (1), 3-O-sulphamoyloxy-7β-methyl-D-homo-6-oxa-8α-estra-1,3,5(10)-trien-17a-one] was tested. Which “Average total volume of tumors in mice (M)” value (20 mg/kg i.g. daily, Day 6) did it give?
A: 0.86 cm^3

Q: What about the “Average volume of tumors present at the beginning of the experiment (M)” value (shortened to “Average volume of tumors present”) (20 mg/kg i.g. daily, Day 6) of the same compound?
A: 0.32 cm^3

Q: What about the “Relative change of the average total volume of tumors to that of Day −1 (M)” value (“Relative change” below) (20 mg/kg i.g. daily, Day 6) of the same compound?
A: 20%

Q: And the “TGI (average total tumor volume)” value (20 mg/kg i.g. daily, Day 6)?
A: −26%

Q: What about the “TGI (average tumor volume)” value (20 mg/kg i.g. daily, Day 6) of the same compound?
A: −7%

Q: What about the “Average total volume of tumors in mice (M)” value (20 mg/kg i.g. daily, Day 13) of the same compound?
A: 1.04 cm^3

Q: And the “Average volume of tumors present” value (20 mg/kg i.g. daily, Day 13)?
A: 0.39 cm^3

Q: And the “Relative change” value (20 mg/kg i.g. daily, Day 13)?
A: 38** %

Q: What about the “TGI (average total tumor volume)” value (20 mg/kg i.g. daily, Day 13) of the same compound?
A: 19%

Q: And the “TGI (average tumor volume)” value (20 mg/kg i.g. daily, Day 13)?
A: 30%

Q: What about the “Average total volume of tumors in mice (M)” value (20 mg/kg i.g. daily, Day 20) of the same compound?
A: 1.61 cm^3

Q: What about the “Average volume of tumors present” value (20 mg/kg i.g. daily, Day 20) of the same compound?
A: 0.6 cm^3

Q: What about the “Relative change” value (20 mg/kg i.g. daily, Day 20) of the same compound?
A: 101** %

Q: And the “TGI (average total tumor volume)” value (20 mg/kg i.g. daily, Day 20)?
A: −7%

Q: What about the “TGI (average tumor volume)” value (20 mg/kg i.g. daily, Day 20) of the same compound?
A: 9%

Q: And the “Average total volume of tumors in mice (M)” value (20 mg/kg i.g. daily, Day 27)?
A: 2.19 cm^3

Q: What about the “Average volume of tumors present” value (20 mg/kg i.g. daily, Day 27) of the same compound?
A: 0.81 cm^3

Q: And the “Relative change” value (20 mg/kg i.g. daily, Day 27)?
A: 212** %

Q: And the “TGI (average total tumor volume)” value (20 mg/kg i.g. daily, Day 27)?
A: −7%

Q: And the “TGI (average tumor volume)” value (20 mg/kg i.g. daily, Day 27)?
A: 9%

Q: And the “% of change from baseline (average total tumor volume)” value [1]?
A: 204%

Q: What about the “% of change to the initial value (average tumor volume)” value [1] of the same compound?
A: 200%

Q: And the “Average total volume of tumors in mice (M)” value (20 mg/kg i.g. daily, Day −1)?
A: 0.72 cm^3

Q: What about the “Average volume of tumors present” value (20 mg/kg i.g. daily, Day −1) of the same compound?
A: 0.27 cm^3

Q: And the “Relative change” value (20 mg/kg i.g. daily, Day −1)?
A: 0%

Q: And the “TGI (average total tumor volume)” value (20 mg/kg i.g. daily, Day −1)?
A: −71%

Q: What about the “TGI (average tumor volume)” value (20 mg/kg i.g. daily, Day −1) of the same compound?
A: −50%

Q: What about the “Average volume of new tumors, % less than that of the control group” value (20 mg/kg i.g. daily, end of observation) of the same compound?
A: 18%

Q: And the “Absolute number of new tumors” value (20 mg/kg i.g. daily, end of study)?
A: 29

Q: What about the “Frequency of tumor stabilizations” value (20 mg/kg i.g. daily, end of study, volume not increased by more than 20%) of the same compound?
A: 19%

Q: And the “Average volume of new tumors at the end of the observation period (M)” value (20 mg/kg i.g. daily, listed as medicament)?
A: 0.27±0.05 cm^3 and 0.27 cm^3

Q: And the “Average total volume of tumors in mice (M)” value (100 mg/kg i.g. daily, Day 6)?
A: 0.94 cm^3

Q: And the “Average volume of tumors present” value (100 mg/kg i.g. daily, Day 6)?
A: 0.38 cm^3

Q: And the “Relative change” value (100 mg/kg i.g. daily, Day 6)?
A: 26%

Q: And the “TGI (average total tumor volume)” value (100 mg/kg i.g. daily, Day 6)?
A: −38%

Q: And the “TGI (average tumor volume)” value (100 mg/kg i.g. daily, Day 6)?
A: −27%

Q: And the “Average total volume of tumors in mice (M)” value (100 mg/kg i.g. daily, Day 13)?
A: 1.15 cm^3

Q: And the “Average volume of tumors present” value (100 mg/kg i.g. daily, Day 13)?
A: 0.46 cm^3

Q: And the “Relative change” value (100 mg/kg i.g. daily, Day 13)?
A: 68** %

Q: What about the “TGI (average total tumor volume)” value (100 mg/kg i.g. daily, Day 13) of the same compound?
A: 11%

Q: What about the “TGI (average tumor volume)” value (100 mg/kg i.g. daily, Day 13) of the same compound?
A: 18%

Q: And the “Average total volume of tumors in mice (M)” value (100 mg/kg i.g. daily, Day 20)?
A: 1.36 cm^3

Q: What about the “Average volume of tumors present” value (100 mg/kg i.g. daily, Day 20) of the same compound?
A: 0.55 cm^3

Q: What about the “Relative change” value (100 mg/kg i.g. daily, Day 20) of the same compound?
A: 139* %

Q: What about the “TGI (average total tumor volume)” value (100 mg/kg i.g. daily, Day 20) of the same compound?
A: 10%

Q: What about the “TGI (average tumor volume)” value (100 mg/kg i.g. daily, Day 20) of the same compound?
A: 17%

Q: What about the “Average total volume of tumors in mice (M)” value (100 mg/kg i.g. daily, Day 27) of the same compound?
A: 1.74 cm^3

Q: What about the “Average volume of tumors present” value (100 mg/kg i.g. daily, Day 27) of the same compound?
A: 0.7 cm^3

Q: And the “Relative change” value (100 mg/kg i.g. daily, Day 27)?
A: 198** %
